Source: patent US12123010B2, “Plants having increased tolerance to herbicides” (BASF SE, priority 2017, dated 2024)

Columns and labels:
[1] = tested on: Variant PPO Enzyme L397Q, F420V (Amaranthus PPO2); type: biochemical; settings: variant L397Q, F420V vs wild type
[2] = tested on: Variant PPO Enzyme F420V (Amaranthus PPO2); type: biochemical; settings: variant F420V vs wild type

With `CCOC(=O)COc1ncccc1Oc1nc(-n2c(=O)cc(C(F)(F)F)n(C)c2=O)c(F)cc1Cl` [Uracilpyridine 2, ethyl 2-[[3-[[3-chloro-5-fluoro-6-[3-methyl-2,6-dioxo-4-(trifluoromethyl)pyrimidin-1-yl]-2-pyridyl]oxy]-2-pyridyl]oxy]acetate] the “Tolerance Factor (R/S)” value [1] was 13678 and the “Tolerance Factor (R/S)” value [2] was 567.
